Target: T1, glucocerebrosidase (Gcase) (Homo sapiens, UniProt P04062)
T1 sequence (P04062 40-536): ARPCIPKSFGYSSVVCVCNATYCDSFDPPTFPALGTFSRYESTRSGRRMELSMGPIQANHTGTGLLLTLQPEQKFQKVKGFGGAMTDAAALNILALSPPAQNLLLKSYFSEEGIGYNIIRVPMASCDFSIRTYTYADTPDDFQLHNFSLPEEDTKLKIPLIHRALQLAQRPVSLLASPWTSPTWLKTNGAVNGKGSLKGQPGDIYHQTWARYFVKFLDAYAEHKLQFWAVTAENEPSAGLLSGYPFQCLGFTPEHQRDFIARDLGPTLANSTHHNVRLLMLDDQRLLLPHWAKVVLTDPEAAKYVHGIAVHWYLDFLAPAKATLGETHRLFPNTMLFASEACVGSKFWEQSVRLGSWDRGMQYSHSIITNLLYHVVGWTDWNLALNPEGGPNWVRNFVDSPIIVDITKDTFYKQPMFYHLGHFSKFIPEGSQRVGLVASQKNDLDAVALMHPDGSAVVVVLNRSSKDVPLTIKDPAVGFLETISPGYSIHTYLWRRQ
Assay: Glucocerebrosidase (Gcase) activation assay, 4-methylumbelliferyl-beta-D-glucopyranoside substrate, fluorescence
Format: biochemical
Details: 10 nM GCase, 100 nM saposin C; for activation at 0.1 µM / activation at 1 µM: 0.25 h; for activation at 0.1 µM: pH 4.7, test compound at 0.1 μM, read-out: Percent Gcase Activation 0.1 μM Test Compound; for activation at 1 µM: pH 4.7, test compound at 1.0 μM, read-out: Percent Gcase Activation 1 μM Test Compound; for Percent Gcase Activation 0.1 μM Test Compound: test compound at 0.1 μM; for Percent Gcase Activation 0.1 μM Test Compound / Percent Gcase Activation 1 μM Test Compound: pH 4.7; for Percent Gcase Activation 1 μM Test Compound: test compound at 1.0 μM
Procedure: The ability of exemplary compounds to activate glucocerebrosidase (Gcase) was measured.
A 484 μL aliquot of a 1.0 mg/mL solution of phosphatidylserine (PS) (Sigma P7769) in chloroform was evaporated under a stream of nitrogen for 1 hour. The lipid film was dissolved over 4 minutes of vigorous vortexing in 40 mL of 176 mM K2HPO4/50 mM citric acid (pH 4.7) containing 7.5 μL of triton X-100, resulting in a mixed micellar preparation with a composition of 0.32 mM triton and 0.37 mol % PS. 4-Methylumbelliferyl-beta-D-glucopyranoside (ACROS-337025000) was dissolved in the micellar solution to a final concentration of 2 mM for use as the reaction substrate.
Test compounds were diluted to the desired concentrations with dimethylsulfoxide (DMSO) from 10 mM stocks, and 0.41 μL of the DMSO compound mixture was added to 100 μL of micellar solution containing 10 nM GCase and 100 nM saposin C (Enzo ALX-201-262-C050). Pre-incubation was allowed to occur for 30 minutes at room temperature, after which the reaction was initiated by combining 25 μL of substrate solution with 25 μL of compound/GCase/saposin mixture. The reaction proceeded for 15 minutes at room temperature and was stopped by adding 150 μL of 1M glycine, pH 12.5. The endpoint of the reaction was monitored by measuring fluorescence intensity (excitation: 365 nm; emission: 440 nm) on a SpectraMax i3 instrument (Molecular Devices). Test compounds were screened at 1.0 and 0.1 μM final concentration, and subsequent 8-point dose response curves were obtained using 3-fold dilutions from a maximum final concentration of 5 μM.
For experiments in which the test compound was used at a concentration of 1.0 μM, the symbol “+” indicates less than 30% Gcase activation; the symbol “++” indicates Gcase activation in the range of 30% up to 60%; and the symbol “+++” indicates Gcase activation greater than 60%. For experiments in which the test compound was used at a concentration of 0.1 μM, the symbol “*” indicates less than 10% Gcase activation; the symbol “**” indicates Gcase activation in the range of 10% up to 20%; and the symbol “***” indicates greater than 20% Gcase activation.

activation at 0.1 µM [%]	activation at 1 µM [%]	Percent Gcase Activation 0.1 μM Test Compound	Percent Gcase Activation 1 μM Test Compound	SMILES
< 10	< 30			Cc1cc(C)n2ccc(C(=O)N[C@@H](C)c3nc4ccccc4n3C)c2n1 [IV-37]
< 10	30 to 60			Cc1cc(C)n2ccc(C(=O)NC(C)c3ccc(-c4cccnc4)cc3)c2n1 (stereo not shown) [IV-43]
> 20	> 60			COc1ccccc1C(C)NC(=O)c1ccn2c(C)cc(C)nc12 (stereo not shown) [IV-60]
> 20	> 60			Cc1cc(C)n2ccc(C(=O)NC(C)c3ccccc3C)c2n1 (stereo not shown) [IV-63]
10 to 20	> 60			Cc1cc(C)n2ccc(C(=O)NC(C)c3ncc(-c4ccccc4)o3)c2n1 (stereo not shown) [IV-65]
< 10	30 to 60			Cc1cc(C)n2ccc(C(=O)NC(C)c3ccccc3-n3cccn3)c2n1 (stereo not shown) [IV-67]
10 to 20	> 60			Cc1cc(C)n2ccc(C(=O)NC(C)c3ccc(-n4cccn4)cc3)c2n1 (stereo not shown) [IV-68]
< 10	> 60			Cc1cc(C)n2ccc(C(=O)NC(C)c3ccccc3-c3ccccc3)c2n1 (stereo not shown) [IV-70]
10 to 20	> 60			Cc1cc(C)n2ccc(C(=O)NC(C)c3cccc(-n4cccn4)c3)c2n1 (stereo not shown) [IV-75]
> 20	> 60			Cc1cc(C)n2ccc(C(=O)NC(C)c3ccc(-c4ccccc4)cc3)c2n1 (stereo not shown) [IV-77]
< 10	< 30			Cc1cc(C)n2ccc(C(=O)NC(C)c3nnn(-c4ccccc4)n3)c2n1 (stereo not shown) [IV-80]
10 to 20	> 60			Cc1cc(C)n2ccc(C(=O)N[C@H](C)c3ccc4c(c3)OCO4)c2n1 [IV-84]
< 10	< 30			Cc1cc(C)n2ccc(C(=O)NC(C)c3nc4ccccc4n3C)c2n1 (stereo not shown) [IV-85]
> 20	> 60			CCOc1ccc(C(C)NC(=O)c2ccn3c(C)cc(C)nc23)cc1 (stereo not shown) [IV-88]
< 10	< 30			Cc1cc(C)n2ccc(C(=O)NC(CO)c3ccc4ccccc4c3)c2n1 (stereo not shown) [IV-90]
10 to 20	> 60			Cc1cc(C)n2ccc(C(=O)N[C@H](C)c3ccc(F)cc3)c2n1 [IV-97]
10 to 20	> 60			CCc1ccc([C@@H](C)NC(=O)c2ccn3c(C)cc(C)nc23)cc1 [IV-100]
< 10	> 60			Cc1cc(C)n2ccc(C(=O)NC(C)c3cccc(N4CCCC4)c3)c2n1 (stereo not shown) [IV-102]
> 20	> 60			Cc1cc(C)n2ccc(C(=O)NC(C)c3ccc(C)c(F)c3)c2n1 (stereo not shown) [IV-104]
> 20	> 60			CCC(NC(=O)c1ccn2c(C)cc(C)nc12)c1cccc(Cl)c1 (stereo not shown) [IV-105]
10 to 20	> 60			Cc1cc(C)n2ccc(C(=O)NC(C)c3ccc(F)c(C)c3)c2n1 (stereo not shown) [IV-107]

Continued, compound first:

SMILES	activation at 0.1 µM [%]	activation at 1 µM [%]	Percent Gcase Activation 0.1 μM Test Compound	Percent Gcase Activation 1 μM Test Compound
COCc1cc(C(F)F)n2ccc(C(=O)NC3(c4cc(F)cc(F)c4)CC3)c2n1 [III-9]	< 10	< 30		
CCCCO[C@H]1CC[C@H](NC(=O)c2ccn3c(C)cc(C4CCOCC4)nc23)CC1 [III-32]	< 10	30 to 60		
Cc1cc(-c2ncccn2)nc2c(C(=O)NC(C)(C)C3CC3)ccn12 [III-43]	10 to 20	> 60		
Cc1cn2ccc(C(=O)NC(C)(C)C3CC3)c2nc1-c1ccc(F)cc1 [III-50]	< 10	> 60		
COCC(NC(=O)c1ccn2c(C)cc(C)nc12)C1CC1 (stereo not shown) [III-66]	< 10	< 30		
Cc1cc(C)n2ccc(C(=O)NC(C)C3CCCCC3)c2n1 (stereo not shown) [III-67]			*** (greater than 20% Gcase activation)	+++ (Gcase activation greater than 60%)
COCC(C)(NC(=O)c1ccn2c(C)cc(C)nc12)c1ccccc1 (stereo not shown) [III-68]	< 10	> 60		
Cc1cc(C)n2ccc(C(=O)NC(C)C3CCCC3)c2n1 (stereo not shown) [III-69]	10 to 20	> 60		
Cc1cc(C)n2ccc(C(=O)NC(CO)C34CC5CC(CC(C5)C3)C4)c2n1 (stereo not shown) [IV-34]	< 10	30 to 60		
Cc1cc(C)n2ccc(C(=O)NC(C)C3COc4ccccc4O3)c2n1 (stereo not shown) [IV-36]			* (less than 10% Gcase activation)	+ (less than 30% Gcase activation)
CCC(NC(=O)c1ccn2c(C)cc(C)nc12)c1ncccc1C (stereo not shown) [IV-57]	< 10	< 30		
Cc1cc(C)n2ccc(C(=O)NC(C)c3nc(C4CCCCC4)no3)c2n1 (stereo not shown) [IV-69]	10 to 20	> 60		
CCC(NC(=O)c1ccn2c(C)cc(C)nc12)C12CC3CC(C1)C(C3)C2 (stereo not shown) [IV-72]	> 20	> 60		
COc1ccc(F)cc1C(C)NC(=O)c1ccn2c(C)cc(C)nc12 (stereo not shown) [IV-74]	> 20	> 60		
Cc1cc(C)n2ccc(C(=O)NC(C)c3nnn(C4CC4)n3)c2n1 (stereo not shown) [IV-76]	< 10	< 30		
Cc1cc(C)n2ccc(C(=O)NC(Cc3ccccc3)c3ccccc3)c2n1 (stereo not shown) [IV-81]	> 20	> 60		

SMILES	activation at 0.1 µM [%]	activation at 1 µM [%]	Percent Gcase Activation 0.1 μM Test Compound	Percent Gcase Activation 1 μM Test Compound
Cc1cc(C)n2ccc(C(=O)NC(C)C3COc4ccccc4O3)c2n1 (stereo not shown) [IV-82]	< 10			+++ (Gcase activation greater than 60%)
CCC(NC(=O)c1ccn2c(C)cc(C)nc12)c1ccc(OC)cc1 (stereo not shown) [IV-83]	> 20	> 60		
CCC(NC(=O)c1ccn2c(C)cc(C)nc12)c1nc2ccccc2[nH]1 (stereo not shown) [IV-86]	< 10	< 30		
Cc1cc(C)n2ccc(C(=O)NC(C)C3Oc4ccccc4C3C)c2n1 (stereo not shown) [IV-87]	10 to 20	> 60		
Cc1cc(C)n2ccc(C(=O)NC(C)C34CC5CC(C3)C(C5)C4)c2n1 (stereo not shown) [IV-89]	> 20	> 60		
Cc1ccc(C(CO)NC(=O)c2ccn3c(C)cc(C)nc23)c(C)c1 (stereo not shown) [IV-91]	< 10	< 30		
Cc1cc(C)n2ccc(C(=O)NC(CO)c3cccc(C)c3C)c2n1 (stereo not shown) [IV-92]	< 10	< 30		
Cc1cc(C)n2ccc(C(=O)NC(CO)c3ccc(C(C)C)cc3)c2n1 (stereo not shown) [IV-93]	< 10	< 30		
Cc1cc(C)n2ccc(C(=O)NC(CO)c3cccc4ccccc34)c2n1 (stereo not shown) [IV-94]	< 10	30 to 60		
Cc1cc(C)n2ccc(C(=O)N[C@H](C)c3cccc4c3CCCC4)c2n1 [IV-95]	10 to 20	> 60		
Cc1cc(C)n2ccc(C(=O)NC(C)(C)c3cccc(Cl)c3)c2n1 [IV-96]	> 20	> 60		
CCC(=O)Nc1ccc(C(C)NC(=O)c2ccn3c(C)cc(C)nc23)cc1 (stereo not shown) [IV-98]	> 20	> 60		
Cc1cc(C)n2ccc(C(=O)N[C@@H](C)c3cccc4c3CCCC4)c2n1 [IV-99]	> 20	> 60		
CCC(CO)(NC(=O)c1ccn2c(C)cc(C)nc12)c1ccccc1 (stereo not shown) [IV-101]	< 10	30 to 60		
Cc1cc(C)n2ccc(C(=O)NC(C)(C)c3ccc(F)cc3)c2n1 [IV-103]	> 20	> 60		
CCn1c(C(C)NC(=O)c2ccn3c(C)cc(C)nc23)nc2c1CCCC2 (stereo not shown) [IV-106]	< 10	< 30		

Source: patent US11124516B2, “Pyrrolo[1,2-A]pyrimidinyl carboxamide compounds and their use in the treatment of medical disorders” (Bial—Biotech Investments, Inc., priority 2016, dated 2021)
